Measured values from patent US20080171697A1, “Peptides Having For Example Antiangiogenic Activity and Applications Thereof In Therapeutics” (priority 2003, published 2008).
Positions of bridges follow the written chain, without caps; N, C: chain ends. No end group written: not given here.

Legend:
[1] = system: HUVECs; assay: Study of the peptide entry process in HUVECs; format: cell-based, human; conditions: for entry of the peptide into HUVECs: cotreatment with dextran beads for 5 h
Text: No entry of the FITC-CycRAD peptide into HUVECs, nor entry of the FITC-CycRGD peptide into HeLas is observed.

[2] = system: HUVEC cells; assay: Drop in mitochondrial membrane potential in cellula (JC-1, microscope); format: cell-based, human; conditions: HUVEC cells treated for 16-24 h with 15 μM, JC-1 labeling
[3] = system: HUVEC cells; assay: Cytochrome c release in cellula (microscopy, anti-cytochrome c and anti-VDAC); format: cell-based, human; conditions: 24 h of treatment, 10 μM
[4] = system: HUVECs; assay: Intracellular routing of TEAM-VP (confocal microscope); format: cell-based, human; conditions: for codistribution with the lysosomes (anti-Lamp2-FITC): Streptavidin-Texas Red; for codistribution with the mitochondria (anti-VDAC): Streptavidin-FITC
Description: HUVECs treated with TEAM-VP for 8, 24 and 32 h are observed using a confocal microscope.

[5] = molecular target: T1, αVβ3 integrins at the surface of endothelial cells (human, UniProt P06756 31-1048; P05106 27-788); assay: flow cytometry of FITC-labeled peptide on HUVEC cells (FIG. 2)
T1 construct: whole, on cells; Native integrin on HUVEC cells; the cells also carry other integrins (αVβ5 was stained as well); also called αVβ3 receptors
Description: The HUVEC cells were or were not preincubated for 30 min at ambient temperature with 200 μM of nonlabeled CycRGD peptide before the addition of FITC-CycRGD peptide (10 μM) for 45 min., and were analyzed by flow cytometry (FIG. 2b).

[6] = molecular target: T1, αVβ3 integrins at the surface of …; assay: peptide brought into contact with endothelial cells; endocytosis, confocal microscopy

T1 sequence (P06756 31-1048, chain 1 of 2): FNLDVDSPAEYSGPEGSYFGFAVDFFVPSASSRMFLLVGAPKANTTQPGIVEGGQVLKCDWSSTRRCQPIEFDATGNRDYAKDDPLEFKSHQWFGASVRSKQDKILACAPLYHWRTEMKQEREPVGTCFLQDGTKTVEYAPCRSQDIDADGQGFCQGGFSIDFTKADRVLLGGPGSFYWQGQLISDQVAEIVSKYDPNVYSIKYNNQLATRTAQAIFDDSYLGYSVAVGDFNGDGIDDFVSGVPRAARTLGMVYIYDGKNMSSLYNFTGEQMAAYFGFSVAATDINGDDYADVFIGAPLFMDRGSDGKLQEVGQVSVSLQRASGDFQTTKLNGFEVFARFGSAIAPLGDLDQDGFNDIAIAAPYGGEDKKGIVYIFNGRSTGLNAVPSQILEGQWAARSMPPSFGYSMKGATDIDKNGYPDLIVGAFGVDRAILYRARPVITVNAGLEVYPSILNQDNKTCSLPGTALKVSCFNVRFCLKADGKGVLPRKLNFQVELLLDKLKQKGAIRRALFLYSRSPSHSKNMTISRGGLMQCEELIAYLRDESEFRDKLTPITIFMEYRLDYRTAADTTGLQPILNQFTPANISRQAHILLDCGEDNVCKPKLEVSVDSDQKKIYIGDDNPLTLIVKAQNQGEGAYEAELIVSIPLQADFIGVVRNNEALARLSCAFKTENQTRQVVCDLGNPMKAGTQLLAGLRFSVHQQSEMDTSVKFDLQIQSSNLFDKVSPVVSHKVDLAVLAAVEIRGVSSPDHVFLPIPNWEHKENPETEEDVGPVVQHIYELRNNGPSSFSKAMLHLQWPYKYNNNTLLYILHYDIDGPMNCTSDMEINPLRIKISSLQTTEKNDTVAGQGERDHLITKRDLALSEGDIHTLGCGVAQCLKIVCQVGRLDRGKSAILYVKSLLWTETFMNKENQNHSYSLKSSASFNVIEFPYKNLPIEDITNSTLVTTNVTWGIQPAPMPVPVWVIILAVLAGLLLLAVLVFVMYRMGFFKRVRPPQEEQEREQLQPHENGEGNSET
T1 sequence (P05106 27-788, chain 2 of 2): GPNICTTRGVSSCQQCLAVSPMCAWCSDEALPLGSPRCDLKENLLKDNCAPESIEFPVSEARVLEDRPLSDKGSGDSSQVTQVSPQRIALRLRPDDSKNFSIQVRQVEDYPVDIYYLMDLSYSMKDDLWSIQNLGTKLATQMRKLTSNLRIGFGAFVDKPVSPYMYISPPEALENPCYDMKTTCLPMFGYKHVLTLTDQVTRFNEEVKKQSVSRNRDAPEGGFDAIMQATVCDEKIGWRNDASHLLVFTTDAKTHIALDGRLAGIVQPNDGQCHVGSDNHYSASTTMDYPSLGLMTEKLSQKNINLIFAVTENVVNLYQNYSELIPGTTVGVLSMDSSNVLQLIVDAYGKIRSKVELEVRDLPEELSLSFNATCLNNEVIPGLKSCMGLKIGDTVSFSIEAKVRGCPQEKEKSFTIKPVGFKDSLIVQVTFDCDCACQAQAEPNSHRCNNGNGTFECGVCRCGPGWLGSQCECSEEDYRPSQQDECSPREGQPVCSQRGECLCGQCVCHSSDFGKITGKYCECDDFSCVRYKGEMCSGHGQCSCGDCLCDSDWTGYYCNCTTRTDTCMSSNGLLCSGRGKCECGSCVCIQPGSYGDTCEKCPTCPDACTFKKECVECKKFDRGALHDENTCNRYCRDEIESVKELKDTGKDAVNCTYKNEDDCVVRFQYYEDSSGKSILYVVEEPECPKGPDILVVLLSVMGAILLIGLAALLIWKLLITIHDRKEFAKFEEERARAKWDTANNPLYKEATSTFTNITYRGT

## GG*CRADMFG*CGG-amide (FITC, cyclised, GG/CGG flanks, amide) [FITC-CycRAD]
[1]
  entry of the peptide into HUVECs: No entry

## GG*CRGDMFG*C-GG-LLFIHFRIGSRHSRIG-amide (GGCRGDMFGCGGLLFIHFRIGSRHSRIG-NH2; disulfide 3-10; N-terminus assumed; SMILES CC[C@H](C)[C@H](NC(=O)[C@H](CCCNC(=N)N)NC(=O)[C@H](CO)NC(=O)[C@H](Cc1c[nH]cn1)NC(=O)[C@H](CCCNC(=N)N)NC(=O)[C@H](CO)NC(=O)CNC(=O)[C@@H](NC(=O)[C@H](CCCNC(=N)N)NC(=O)[C@H](Cc1ccccc1)NC(=O)[C@H](Cc1c[nH]cn1)NC(=O)[C@@H](NC(=O)[C@H](Cc1ccccc1)NC(=O)[C@H](CC(C)C)NC(=O)[C@H](CC(C)C)NC(=O)CNC(=O)CNC(=O)[C@@H]1CSSC[C@H](NC(=O)CNC(=O)CN)C(=O)N[C@@H](CCCNC(=N)N)C(=O)NCC(=O)N[C@@H](CC(=O)O)C(=O)N[C@@H](CCSC)C(=O)N[C@@H](Cc2ccccc2)C(=O)NCC(=O)N1)[C@@H](C)CC)[C@@H](C)CC)C(=O)NCC(N)=O) [TEAM-VP]
[2]
  drop in mitochondrial membrane potential in cellula: Drop in potential observed
[3]
  release of cytochrome c in cellula: Release of cytochrome C observed
[1]; HUVECs, treatment with sodium azide+deoxyglucose
  entry of the peptide under sodium azide+deoxyglucose: inhibited by treatment with sodium azide+deoxyglucose
[4]; 8 h of treatment
  codistribution with the lysosomes (anti-Lamp2-FITC): codistributes with the lysosomes
[4]; 24 h
  codistribution with the mitochondria (anti-VDAC): partially codistributes
[4]; 24 h of treatment
  codistribution with the lysosomes (anti-Lamp2-FITC): would appear to leave these organelles
[4]; 32 h
  codistribution with the mitochondria (anti-VDAC): totally codistributes
[4]; throughout the treatment (8, 24 and 32 h)
  codistribution with the Golgi apparatus (anti-Golgin): No codistribution

## GG*CRGDMFG*CGG-amide (GGCRGDMFGCGG-NH2; disulfide 3-10; also: labeled with FITC in the binding assays) [FITC-CycRGD]
[1]; HUVECs, cotreatment for 5 h
  colocalization with dextran beads: colocalize with dextran beads
[1]
  entry of the peptide into HUVECs: enter the HUVECs

B1: GG*CRGDMFG*CGG-amide (CycRGD) (peptide)
peptide: GGCRGDMFGCGG-NH2
modifications: disulfide 3-10; also: labeled with FITC in the binding assays
notes: Cyclised targeting part of TEAM-VP; also called FITC-CycRGD; CycRGD peptide
[5]
  binding result: binds

B2: TEAM-VP (SEQ ID No 2: GG*CRGDMFG*C-GG-[…]-amide) (peptide)
peptide: GGCRGDMFGCGGLLFIHFRIGSRHSRIG-NH2
modifications: disulfide 3-10; not fully specified; also: with or without biotin, FITC label also used
notes: also called chimeric peptide
[6]
  binding result: binds
